In the supplement of paper PMC10307832:

Assays:
Assay in all cases: relative viability (nuclei count vs DMSO), 5 days (fraction); higher = more cells survive
[1] = compound: COc1cc(-c2nn([C@H]3CC[C@H](N4CCN(C(C)=O)CC4)CC3)c3ncnc(N)c23)ccc1NC(=O)c1cc2ccccc2n1C + N=C(N)NC(=N)NCCc1ccccc1 [Phenformin] (partner 250 µM)
Procedure, shortened: (§1)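 Five library-drug doses in √10 steps were combined with a fixed anchor-drug dose, or a single drug was given alone, by pin tool to lung cancer cell lines in 1536-well plates the day after seeding. Nuclei were stained and counted after 5 days. Relative viability is the nuclei count in treated wells over that in vehicle wells, taken as the median of duplicate plates.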

[2] = compound: COc1cc(-c2nn([C@H]3CC[C@H](N4CCN(C(C)=O)CC4)CC3)c3ncnc(N)c23)ccc1NC(=O)c1cc2ccccc2n1C + CC(C)C[C@H](NC(=O)[C@H](Cc1ccccc1)NC(=O)c1cnccn1)B(O)O [Bortezomib] (partner 0.002 µM)
Procedure, shortened: as §1

[3] = compound: CO[C@@H]1[C@H](N(C)C(=O)c2ccccc2)C[C@H]2O[C@]1(C)n1c3ccccc3c3c4c(c5c6ccccc6n2c5c31)C(=O)NC4 [Midostaurin] + CS(=O)(=O)N1CCN(Cc2cc3nc(-c4cccc5[nH]ncc45)nc(N4CCOCC4)c3s2)CC1 [Pictilisib] (partner 1 µM)
Procedure, shortened: as §1

[4] = compound: CO[C@@H]1[C@H](N(C)C(=O)c2ccccc2)C[C@H]2O[C@]1(C)n1c3ccccc3c3c4c(c5c6ccccc6n2c5c31)C(=O)NC4 [Midostaurin] + C[C@@H](Oc1cc(-c2cnn(C3CCNCC3)c2)cnc1N)c1c(Cl)ccc(F)c1Cl [Crizotinib] (partner 1 µM)
Procedure, shortened: as §1

[5] = compound: CO[C@@H]1[C@H](N(C)C(=O)c2ccccc2)C[C@H]2O[C@]1(C)n1c3ccccc3c3c4c(c5c6ccccc6n2c5c31)C(=O)NC4 [Midostaurin] + Cc1cc(Nc2cc(N3CCN(C)CC3)nc(Sc3ccc(NC(=O)C4CC4)cc3)n2)n[nH]1 [Tozasertib] (partner 0.1 µM)
Procedure, shortened: as §1

UMC-11
relative viability ([1]; first compound 0.0128 µM): 0.285 | relative viability ([1]; first compound 0.04048 µM): 0.336 | relative viability ([1]; first compound 0.128 µM): 0.311 | relative viability ([1]; first compound 1.28 µM): 0.279 | relative viability ([2]; first compound 0.0128 µM): 0.728 | relative viability ([2]; first compound 0.04048 µM): 0.687 | relative viability ([2]; first compound 0.128 µM): 0.668 | relative viability ([2]; first compound 1.28 µM): 0.655 | relative viability ([3]; first compound 0.01 µM): 0.859 | relative viability ([3]; first compound 0.03162 µM): 0.602 | relative viability ([3]; first compound 0.1 µM): 0.871 | relative viability ([3]; first compound 0.3162 µM): 0.663 | relative viability ([4]; first compound 0.01 µM): 0.553 | relative viability ([4]; first compound 0.03162 µM): 0.53 | relative viability ([4]; first compound 0.1 µM): 0.447 | relative viability ([4]; first compound 0.3162 µM): 0.179 | relative viability ([5]; first compound 0.01 µM): 0.208 | relative viability ([5]; first compound 0.03162 µM): 0.18 | relative viability ([5]; first compound 0.1 µM): 0.196 | relative viability ([5]; first compound 0.3162 µM): 0.174
